Results from patent US6750256B1, “Use of aromatic aldehydes as insecticides” (Proguard, Inc., priority 1994, dated 2004).

What was measured:
Format in all cases: in vivo
[1] = tested on: melon aphid (Aphis gossypii Glover); experiment: Melon aphid plant foliar bioassay on flowering chrysanthemums; conditions: each concentration (1,000, 3,000, 10,000 ppm); after 36 hours; pre-count mean of about 60
Description: Treatment of melon aphid (Aphis gossypii Glover) is conducted as follows. Plants were grown in […] pots in planting soil in greenhouse. Chrysantemums (c. morifolum) were used for melon aphid plant foliar bioassays.
Flowering plants were infested and pre-count population size for each plant were taken and number of mean of aphids nymphs per leaf calculated. The plants were sprayed to runoff (about 5 ml) with an aqueous formulation containing 1,000 ppm, 3,000 ppm, and 10,000 ppm concentration of cinnamic aldehyde, and a negative control containing only H2O. After 36 hours, the number of insects on the leaves sprayed with a given test formulation was determined and compared with that of insects on leaves sprayed with negative control only. Mean aphid nymphs per leaf were determined to be less than 10 for each cinnamic aldehyde concentration compared to a pre-count mean of about 60.

[2] = tested on: adult Aedes aegypti mosquitos; experiment: Mosquito adulticide treated filter paper test
Description: The toxicity of the formulation for mosquitos was determined using adult Aedes aegypti mosquitos from the University of California Mosquito Control Research Laboratory at the Kearney Agricultural Center. The experiments were performed as double blind studies.
One ml test formulation was pipetted onto 11 cm #2 Whatman filter paper circle cut to fit shell vials (84 mm×23 mm) which was air dried at room temperature for two hours and placed in a shell vial (84 mm×23 mm). Twenty unblooded adult female mosquitos approximately four days of age were aspirated using gentle suction into each shell vial. The open end of the vial was covered with 1 mm nylon mesh and filter paper cut to fit for complete coverage from an 11 cm #2 Whatman filter paper circle. The vials were placed in a polyethylene mosquito bag (46 cm×20 cm) with a wet paper towel inside and loosely sealed. The bag was gently inflated by gently blowing in air and placed in an incubator at 22° C. for 24 hours with a day light cycle (14 hrs light; 10 hrs dark). Untreated paper and paper treated with H2O were used as controls. Mortality was determined by counting the number of dead mosquitos.
The efficacy of various concentrations of cinnamic aldehyde in a formulation of 2% Tween 80, 6% NaHCO3 was tested, using concentrations of cinnamic aldehyde ranging from 25,000 ppm to 10 ppm with and without the addition of saponin, 1:60 dilution of a 10° Brix solution. At concentrations down to 100 ppm added to the filter paper, 100% of the mosquitos were killed. At 10 ppm added to the filer paper, 78% of the mosquitos were killed in the absence of saponin, but only 5% with saponin 14% of mosquitos were killed with the addition of 2% Tween 80 and 6% NaHCO3 alone to the filter paper and 50% with the further addition of a 1:60 dilution 10° Brix saponin. The percent mortality is the average of three replications, with corrections for control mortality. Malathion was used as a positive control.

[3] = tested on: hard ticks (Ixodea pacificus and Dermacentor albipietus); experiment: Tick treated filter paper test, hard ticks
Description: In a double blind experiment, filter papers (90 mm) (Whatman) were treated to uniform saturation with 1 ml of test formula and placed in 90 mm petri dishes. Ten arachnids were placed in each petri dish and the dish closed. Observations of mortality were made at 30 minutes, 1 hour, 3 hours, 6 hours, 12 hours and 24 hours. The cinnamic aldehyde concentrations varied from 10-50,000 ppm in a vehicle of 2% Tween 80, 6% NaHCO3. The effect of vehicle alone or H2O (HPLC) was also tested. In separate experiments, the effects of the components of the vehicle were evaluated in comparison to water.

[4] = tested on: two-spotted spider mite, Tetranychus urticae; experiment: Spider mite treated petri dish contact bioassay; conditions: Tetranychus urticae, 24 hours contact, read-out: Percent Mortality (24 hours)
Description: Activity of cinnamic aldehyde and/or coniferyl aldehyde against two-spotted spider mite, Tetranychus urticae is determined as follows. In a double blind experiment, intersurfaces of petri dishes (60 mm diameter) were treated with 100 μl of a test formulation and allowed to air dry and used within the hour. Twenty adult spider mites were put in each dish and the percent of mortality of the spider mites after 24 hours in contact with the treated dishes Was determined.

[5] = 24 h, read-out: Percent Mortality CNMA (PGXL)

Structure (SMILES): O=C/C=C/c1ccccc1 [CNMA, cinnamic aldehyde]
- Mean aphid nymphs per leaf [1]: less than 10
- mosquitos killed ([2]; 10 ppm added to the filter paper, in the absence of saponin): 78%
- mosquitos killed ([2]; 10 ppm added to the filter paper, with saponin): 5%
- mortality at 10 ppm [2, 5]: 78%
- mortality at 100 ppm [2, 5]: 100%
- mortality at 2500 ppm [2, 5]: 95%
- mortality at 5000 ppm [2, 5]: 100%
- mortality at 12500 ppm [2, 5]: 100%
- mortality at 25000 ppm [2, 5]: 100%
- mosquitos killed ([2]; concentrations down to 100 ppm added to the filter paper): 100%
- mortality ([3]; 2500 ppm in vehicle (2% Tween 80, 6% NaHCO3), in 24 hours, preliminary experiments): 100%
- effect on mortality ([3]; concentrations below 2500 in vehicle): no effect on mortality
- mortality at 10 ppm ([4]; 10 ppm in 2% Tween 80, 6% NaHCO3): 51.7%
- mortality at 100 ppm ([4]; 100 ppm in 2% Tween 80, 6% NaHCO3): 56%
- mortality at 2500 ppm ([4]; 2,500 ppm in 2% Tween 80, 6% NaHCO3): 78%
- mortality at 5000 ppm ([4]; 5,000 ppm in 2% Tween 80, 6% NaHCO3): 66.4%
- mortality at 12500 ppm ([4]; 12,500 ppm in 2% Tween 80, 6% NaHCO3): 98.6%
- mortality at 25000 ppm ([4]; 25,000 ppm in 2% Tween 80, 6% NaHCO3): 99.2%
